In the experiment the test system is porcine satellite cells. Description: myotube size of differentiated porcine satellite cells, 72 hour treatment. In kind it is cell-based. Particulars: for myotube size compared to the control treatment: each alone in DM: 5 ng/mL IGF-1, 4 mM L-glutamine, 10 mM L-lysine, 10 μM L-methionine, 72 hour, FIG. 1; for myotube size compared to the control treatment / myotube growth on addition to the combination: 1 mM L-leucine, 1 mM L-arginine; for useful inclusion (minimum amount required to produce the maximal growth response): titrated within the combination with 5 ng/mL active IGF-1, FIGS. 3-5; for myotube growth on addition to the combination: titrated 0.5-3 mM into 5 ng/mL IGF-1, 3 mM L-glutamine, FIGS. 6 and 7.

The values below come from patent publication US20230157319A1, “SUPPLEMENTS AND COMPOSITIONS CONTAINING AMINO ACIDS AND IGF-1 AND METHODS OF USE” (PURETEIN BIOSCIENCE LLC, priority 2020, published 2023).

`N=C(N)NCCC[C@H](N)C(=O)O` [L-arginine]: the “myotube size compared to the control treatment” value is given as “more profound growth response of myotubes” and the “useful inclusion (minimum amount required to produce the maximal growth response)” value (shortened to “useful inclusion”) is 1 mM.

Regarding `NC(=O)CC[C@H](N)C(=O)O` [L-glutamine], the “myotube size compared to the control treatment” value is listed as “more profound growth response of myotubes” and the “useful inclusion” value is 3 mM.

As to `CC(C)C[C@H](N)C(=O)O` [L-leucine], the “myotube size compared to the control treatment” value is “more profound growth response of myotubes” and the “useful inclusion” value stood at 1 mM.

Consider `NCCCC[C@H](N)C(=O)O` [L-lysine], for which the “myotube size compared to the control treatment” value is reported as “increase the myotube size compared to the control treatment” and the “myotube growth on addition to the combination” value is “did not provide any increase in myotube growth”.

Take `CSCC[C@H](N)C(=O)O` [L-methionine]: the “myotube size compared to the control treatment” value was “increase the myotube size compared to the control treatment” and the “myotube growth on addition to the combination” value is given as “did not provide any increase in myotube growth”.

Turning to insulin-like growth factor 1 [IGF-1], the “myotube size compared to the control treatment” value is “increase the myotube size compared to the control treatment”.
